Results on 18 molecules are retold here after patent US9499550B2 (BRISTOL-MYERS SQUIBB COMPANY, priority 2012, dated 2016).

In assay [1] the test system is HCV genotype 1a (H77 strain) replicon in HUH-7 cells. Nature of the assay: HCV replicon luciferase reporter assay, genotype 1a. The assay is classed as cell-based. To be noted: Hepatitis C virus, Huh-7, 72 h, HCV genotype 1a replicon luciferase, 3 days incubation. The method, boiled down:
(§1)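 Replicon inhibition for both genotypes was measured as Renilla luciferase signal (EnduRen, 7.5 μM final, 2 h) after 3-day, 37° C exposure of replicon-bearing HUH-7 cells in 4% FCS DMEM, 0.5% DMSO. The 1b construct carries S1179I; the 1a H77 construct carries P1496L and S2204I. Twenty-point, 3-fold dilutions were fitted four-parametrically for EC50, and CC50 was taken from multiplexed Cell Titer-Blue.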
Background: A replicon is a self-replicating genome or part of one, used to study replication in cells.

The subject of assay [2] is HCV genotype 1b (Con1) replicon in HUH-7 cells. Description: HCV replicon luciferase reporter assay, genotype 1b. The assay is classed as cell-based. To be noted: Hepatitis C virus, Huh-7, 72 h, HCV genotype 1b replicon luciferase, 3 days incubation. The method, boiled down:
as §1

[3] abbreviates: GETYPE1A, read-out: LE_1a (EC50, range).
[4] abbreviates: GETYPE1B, read-out: LE_1b (EC50, range).
Where [5] appears, read: GETYPE1A, read-out: LE_1a (EC50).
Where [6] appears, read: GETYPE1B, read-out: LE_1b (EC50).

pEC50: −log10 of the molar value. Where two headings read alike, the source gives them in different places.

Turning to `CCOc1ccc2nc(Cl)c(O[C@@H]3C[C@H]4C(=O)N[C@]5(C(=O)NS(=O)(=O)C6(CF)CC6)C[C@H]5/C=C\CC[C@@H](C)C[C@@H](C)[C@H](NC(=O)OC(C)(C)C(F)(F)F)C(=O)N4C3)c(Cl)c2c1` [Compound 4292], the pEC50 in assay [1] (setting [3]) and in assay [2] (setting [4]) was 7.46 to 8.30 in each case.

Take `CCOc1ccc2ncc(O[C@@H]3C[C@H]4C(=O)N[C@]5(C(=O)NS(=O)(=O)C6(CF)CC6)C[C@H]5/C=C\CC[C@@H](C)C[C@@H](C)[C@H](NC(=O)OC(C)(C)C(F)(F)F)C(=O)N4C3)cc2c1` [Compound 4296]: the negative-log EC50 (pEC50) in assay [1] (setting [5]) is 7.93; in assay [1] (setting [3]), 7.46 to 8.30; in assay [2] (setting [6]), 8.26; in assay [2] (setting [4]), 7.46 to 8.30.

`CC[C@@H]1C[C@H](C)CC/C=C\[C@@H]2C[C@@]2(C(=O)NS(=O)(=O)C2(C)CC2)NC(=O)[C@@H]2C[C@@H](Oc3cc(Cl)c4ccc(OC)cc4n3)CN2C(=O)[C@H]1NC(=O)OC(C)(C)C(F)(F)F` [Compound 4298]: the pEC50 in assay [1] (setting [3]) and in assay [2] (setting [4]) was 8.30 to 9.00 each time.

For `COc1ccc2c(Cl)cc(O[C@@H]3C[C@H]4C(=O)N[C@]5(C(=O)NS(=O)(=O)C6(C)CC6)C[C@H]5/C=C\CC[C@@H](C)C[C@@H](C)[C@H](NC(=O)OC(C)(C)C)C(=O)N4C3)nc2c1` [Compound 4300, tert-butyl ((2R,6S,7R,9R,13aS,14aR,16aS,Z)-2-((4-chloro-7-methoxyquinolin-2-yl)oxy)-7,9-dimethyl-14a-(((1-methylcyclopropyl)sulfonyl)carbamoyl)-5,16-dioxo-1,2,3,5,6,7,8,9,10,11,13a,14,14a,15,16,16a-hexadecahydrocyclopropa[e]pyrrolo[1,2-a][1,4]diazacyclopentadecin-6-yl)carbamate], the pEC50 is 9.00 to 9.29 in assay [1] (read-out: LE_1a (EC50, range)) and 9.00 to 9.29 in assay [2] (read-out: LE_1b (EC50, range)).

For `COc1ccc2c(Cl)cc(O[C@@H]3C[C@H]4C(=O)N[C@]5(C(=O)NS(=O)(=O)C6(C)CC6)C[C@H]5/C=C\CC[C@@H](C)C[C@@H](C)[C@H](NC(=O)OC(C)(C)C(F)(F)F)C(=O)N4C3)nc2c1` [Compound 4302], the negative logarithm of the EC50 (pEC50) in assay [1] (setting [3]) and in assay [2] (setting [4]) was 8.30 to 9.00 each time.

Consider `CC[C@@H]1C[C@H](C)CC/C=C\[C@@H]2C[C@@]2(C(=O)NS(=O)(=O)C2CC2)NC(=O)[C@@H]2C[C@@H](Oc3nc4ccc(OC)cc4nc3N(C)C)CN2C(=O)[C@H]1NC(=O)OC(C)(C)C` [Compound 4304, tert-butyl ((2R,6S,7R,9R,13aS,14aR,16aS,Z)-14a-((cyclopropylsulfonyl)carbamoyl)-2-((3-(dimethylamino)-6-methoxyquinoxalin-2-yl)oxy)-7-ethyl-9-methyl-5,16-dioxo-1,2,3,5,6,7,8,9,10,11,13a,14,14a,15,16,16a-hexadecahydrocyclopropa[e]pyrrolo[1,2-a][1,4]diazacyclopentadecin-6-yl)carbamate], for which the negative-log EC50 (pEC50) in assay [1] (read-out: LE_1a (EC50, range)) was 6.21 to 7.46; in assay [2] (read-out: LE_1b (EC50, range)), 7.46 to 8.30.

As to `CC[C@@H]1C[C@H](C)CC/C=C\[C@@H]2C[C@@]2(C(=O)NS(=O)(=O)C2CC2)NC(=O)[C@@H]2C[C@@H](Oc3nc4ccc(OC)cc4nc3N(C)C)CN2C(=O)C1NC(=O)OC(C)(C)C(F)(F)F` (stereo partly drawn) [Compound 4305], the pEC50 in assay [1] (setting [3]) is 6.21 to 7.46; in assay [2] (setting [4]), 7.46 to 8.30.

Turning to `COc1cnc2ccc(O[C@@H]3C[C@H]4C(=O)N[C@]5(C(=O)NS(=O)(=O)C6(C)CC6)C[C@H]5/C=C\CC[C@@H](C)C[C@@H](C)[C@H](NC(=O)OC(C)(C)C)C(=O)N4C3)cc2n1` [Compound 4310, tert-butyl ((2R,6S,7R,9R,13aS,14aR,16aS,Z)-2-((3-methoxyquinoxalin-6-yl)oxy)-7,9-dimethyl-14a-(((1-methylcyclopropyl)sulfonyl)carbamoyl)-5,16-dioxo-1,2,3,5,6,7,8,9,10,11,13a,14,14a,15,16,16a-hexadecahydrocyclopropa[e]pyrrolo[1,2-a][1,4]diazacyclopentadecin-6-yl)carbamate], the pEC50 in assay [1] (read-out: LE_1a (EC50, range)) is 9.00 to 9.29; in assay [2] (read-out: LE_1b (EC50, range)), 8.30 to 9.00.

For the molecule `CCOc1ccc2ncc(O[C@@H]3C[C@H]4C(=O)N[C@]5(C(=O)NS(=O)(=O)C6(C)CC6)C[C@H]5/C=C\CC[C@@H](C)C[C@@H](C)[C@H](NC(=O)OC(C)(C)C)C(=O)N4C3)cc2c1` [Compound 4311, tert-butyl ((2R,6S,7R,9R,13aS,14aR,16aS,Z)-2-((6-ethoxyquinolin-3-yl)oxy)-7,9-dimethyl-14a-(((1-methylcyclopropyl)sulfonyl)carbamoyl)-5,16-dioxo-1,2,3,5,6,7,8,9,10,11,13a,14,14a,15,16,16a-hexadecahydrocyclopropa[e]pyrrolo[1,2-a][1,4]diazacyclopentadecin-6-yl)carbamate], the negative logarithm of the EC50 (pEC50) in assay [1] (read-out: LE_1a (EC50, range)) was 8.30 to 9.00; in assay [2] (read-out: LE_1b (EC50, range)), 8.30 to 9.00.

For the molecule `CCOc1ccc2nc(Cl)c(O[C@@H]3C[C@H]4C(=O)N[C@]5(C(=O)NS(=O)(=O)C6(C)CC6)C[C@H]5/C=C\CC[C@@H](C)C[C@@H](C)[C@H](NC(=O)OC(C)(C)C(F)(F)F)C(=O)N4C3)c(Cl)c2c1` [Compound 4312], the pEC50 is 7.68 in assay [1] (setting [5]), 7.46 to 8.30 in assay [1] (setting [3]), 7.91 in assay [2] (setting [6]) and 7.46 to 8.30 in assay [2] (setting [4]).

On to `CCOc1ccc2ncc(O[C@@H]3C[C@H]4C(=O)N[C@]5(C(=O)NS(=O)(=O)C6(C)CC6)C[C@H]5/C=C\CC[C@@H](C)C[C@@H](C)[C@H](NC(=O)OC(C)(C)C(F)(F)F)C(=O)N4C3)cc2c1` [Compound 4313], for which the negative-log EC50 (pEC50) in assay [1] (setting [3]) is 9.00 to 9.29; in assay [2] (setting [4]), 9.30 to 10.00.

For the molecule `CCOc1ccc2ncc(O[C@@H]3C[C@H]4C(=O)N[C@]5(C(=O)NS(=O)(=O)C6(C)CC6)C[C@H]5/C=C\CC[C@@H](C)C[C@@H](CC)[C@H](NC(=O)OC(C)(C)C(F)(F)F)C(=O)N4C3)cc2c1` [Compound 4314], the pEC50 in assay [1] (setting [3]) and in assay [2] (setting [4]) was 8.30 to 9.00 in each case.

As to `COc1ccc2nc(C(C)C)c(O[C@@H]3C[C@H]4C(=O)N[C@]5(C(=O)NS(=O)(=O)C6CC6)C[C@H]5/C=C\CC[C@H](C)C[C@@H](C)[C@H](NC(=O)OC(C)(C)C)C(=O)N4C3)nc2c1` [Compound 4315, tert-butyl ((2R,6S,7R,9S,13aS,14aR,16aS,Z)-14a-((cyclopropylsulfonyl)carbamoyl)-2-((3-isopropyl-7-methoxyquinoxalin-2-yl)oxy)-7,9-dimethyl-5,16-dioxo-1,2,3,5,6,7,8,9,10,11,13a,14,14a,15,16,16a-hexadecahydrocyclopropa[e]pyrrolo[1,2-a][1,4]diazacyclopentadecin-6-yl)carbamate], the negative-log EC50 (pEC50) was 7.46 to 8.30 in assay [1] (read-out: LE_1a (EC50, range)) and 8.30 to 9.00 in assay [2] (read-out: LE_1b (EC50, range)).

As to `COc1ccc2nc(C(C)C)c(O[C@@H]3C[C@H]4C(=O)N[C@]5(C(=O)NS(=O)(=O)C6CC6)C[C@H]5/C=C\CC[C@@H](C)C[C@@H](C)[C@H](NC(=O)OC(C)(C)C)C(=O)N4C3)nc2c1` [Compound 4316, tert-butyl ((2R,6S,7R,9R,13aS,14aR,16aS,Z)-14a-((cyclopropylsulfonyl)carbamoyl)-2-((3-isopropyl-7-methoxyquinoxalin-2-yl)oxy)-7,9-dimethyl-5,16-dioxo-1,2,3,5,6,7,8,9,10,11,13a,14,14a,15,16,16a-hexadecahydrocyclopropa[e]pyrrolo[1,2-a][1,4]diazacyclopentadecin-6-yl)carbamate], the negative logarithm of the EC50 (pEC50) in assay [1] (read-out: LE_1a (EC50, range)) was 8.30 to 9.00; in assay [2] (read-out: LE_1b (EC50, range)), 8.30 to 9.00.

On to `COc1ccc2nc(C(C)C)c(O[C@@H]3C[C@H]4C(=O)N[C@]5(C(=O)NS(=O)(=O)C6CC6)C[C@H]5/C=C\CC[C@@H](C)C[C@@H](C)[C@H](NC(=O)OC(C)(C)C(F)(F)F)C(=O)N4C3)nc2c1` [Compound 4317], for which the negative-log EC50 (pEC50) in assay [1] (setting [3]) and in assay [2] (setting [4]) was 8.30 to 9.00 throughout.

Consider `COc1ccc2nc(C(C)C)c(O[C@@H]3C[C@H]4C(=O)N[C@]5(C(=O)NS(=O)(=O)C6CC6)C[C@H]5/C=C\CC[C@H](C)C[C@@H](C)[C@H](NC(=O)OC(C)(C)C(F)(F)F)C(=O)N4C3)nc2c1` [Compound 4318], for which the results for the pEC50 in assay [1] (setting [3]) and in assay [2] (setting [4]) were 7.46 to 8.30 and 8.30 to 9.00, respectively.

For `COc1ccc2c(O[C@@H]3C[C@H]4C(=O)N[C@]5(C(=O)NS(=O)(=O)C6(C)CC6)C[C@H]5/C=C\CC[C@@H](C)C[C@@H](C)[C@H](NC(=O)OC(C)(C)C)C(=O)N4C3)cnnc2c1` [Compound 4319, tert-butyl ((2R,6S,7R,9R,13aS,14aR,16aS,Z)-2-((7-methoxycinnolin-4-yl)oxy)-7,9-dimethyl-14a-(((1-methylcyclopropyl)sulfonyl)carbamoyl)-5,16-dioxo-1,2,3,5,6,7,8,9,10,11,13a,14,14a,15,16,16a-hexadecahydrocyclopropa[e]pyrrolo[1,2-a][1,4]diazacyclopentadecin-6-yl)carbamate], the pEC50 is 7.46 to 8.30 in assay [1] (read-out: LE_1a (EC50, range)) and 6.21 to 7.46 in assay [2] (read-out: LE_1b (EC50, range)).

`CC[C@@H]1C[C@H](C)CC/C=C\[C@@H]2C[C@@]2(C(=O)NS(=O)(=O)C2(C)CC2)NC(=O)[C@@H]2C[C@@H](Oc3cnnc4cc(OC)ccc34)CN2C(=O)[C@H]1NC(=O)OC(C)(C)C(F)(F)F` [Compound 4320]: the negative-log EC50 (pEC50) was 7.82 in assay [1] (setting [5]), 7.46 to 8.30 in assay [1] (setting [3]), 7.66 in assay [2] (setting [6]) and 7.46 to 8.30 in assay [2] (setting [4]).

One may read the pEC50 as −log10 of the EC50, conventionally taken in molar units.
